# Results from ChEMBL document CHEMBL1122575, “Dependence of beta-lactamase stability on substructures within beta-lactam antibiotics” (J Med Chem, 1984).
# Tests used:
# [1] = Relative hydrolysis rate (RHR) was evaluated against RTEM enzyme; assay type: ADME
# Escherichia coli [2] = experiment: Compound was evaluated for the antibacterial activity against Escherichia coli (RTEM+organism) at 10E6 colony forming units; assay type: functional
# Enterobacter cloacae [3] = experiment: Compound was evaluated for the antibacterial activity against Enterobacter cloacae with strain 233 (beta-Lactamase-positive (LAC+)); assay type: functional
# Escherichia coli [4] = experiment: Compound was evaluated for the antibacterial activity against Escherichia coli (RTEM+ organism).; assay type: functional
# Escherichia coli [5] = experiment: Compound was evaluated for the antibacterial activity against Escherichia coli with strain JC-S (beta-Lactamase-negative (LAC-)); assay type: functional
# [6] = Relative hydrolysis rate (RHR) was evaluated against K1 enzyme; assay type: ADME
# Escherichia coli [7] = experiment: Compound was evaluated for the relative Vmax against Escherichia coli with strain 609 (beta-Lactamase-positive (LAC+)); assay type: ADME, organism-based
# Escherichia coli [8] = experiment: Compound was evaluated for the antibacterial activity against Escherichia coli with strain 609 (beta-Lactamase-positive (LAC+)); assay type: functional
# Escherichia coli [9] = experiment: Compound was evaluated for the antibacterial activity against Escherichia coli with strain NIHJ (beta-Lactamase-negative (LAC-)); assay type: functional
# Escherichia coli [10] = experiment: Compound was evaluated for the antibacterial activity against Escherichia coli with strain NIHJ (beta-Lactamase-negative (LAC-); assay type: functional
# [11] = Compound was evaluated for the relative Vmax against RTEM enzyme; assay type: ADME
# [12] = Compound was evaluated for the percentage remaining after 24 hr hydrolysis at a pH 7 at 37 degree Centigrade; conditions: buffer
# Escherichia coli [13] = experiment: Compound was evaluated for the antibacterial activity against Escherichia coli (RTEM+ organism); assay type: functional
# Escherichia coli [14] = experiment: Compound was evaluated for the antibacterial activity against Escherichia coli with strain beta-Lactamase-negative (LAC-); assay type: functional
# Escherichia coli [15] = experiment: Compound was evaluated for the antibacterial activity against Escherichia coli (RTEM+organism) at 10e4/10e6 cfu; 6.3/>100; assay type: functional
# Escherichia coli [16] = experiment: Compound was evaluated for the antibacterial activity against Escherichia coli (RTEM-organism) at 10e4/10e6 cfu; 0.4/1.6; assay type: functional
# Klebsiella aerogenes [17] = experiment: Compound was evaluated for the antibacterial activity against Klebsiella aerogenes with strain K1- at 10e4/10e6 cfu; 0.4/1.6; assay type: functional
# Klebsiella aerogenes [18] = experiment: Compound was evaluated for the antibacterial activity against Klebsiella aerogenes with strain K1+ at 10e4/10e6 cfu; 100/>100; assay type: functional
# Enterobacter cloacae [19] = experiment: Compound was evaluated for the antibacterial activity against Enterobacter cloacae with the strains beta-Lactamase-positive (LAC+); assay type: functional
# Providencia rettgeri [20] = experiment: Compound was evaluated for the antibacterial activity against Providencia rettgeri with the strains beta-Lactamase-positive (LAC+); assay type: functional
# Staphylococcus aureus [21] = experiment: Relative hydrolysis rate (RHR) was evaluated against Staphylococcus aureus with the strain FS108; assay type: ADME, organism-based
# Staphylococcus aureus [22] = experiment: Compound was evaluated for the antibacterial activity against Staphylococcus aureus with the strain 209P; assay type: functional
# [23] = Relative Vmax was reported; assay type: ADME
# Escherichia coli [24] = experiment: Relative hydrolysis rate (RHR) was evaluated against Escherichia coli with the strain RTEM; assay type: ADME, organism-based
# Providencia rettgeri [25] = experiment: Compound was evaluated for the antibacterial activity against Providencia rettgeri with the strain beta-Lactamase-negative (LAC-); assay type: functional
# Staphylococcus aureus [26] = experiment: Relative hydrolysis rate (RHR) was evaluated against Staphylococcus aureus with strain PC1.; assay type: ADME, organism-based
# Staphylococcus aureus [27] = experiment: Compound was evaluated for the antibacterial activity against Staphylococcus aureus with strain beta-Lactamase-negative (LAC-); assay type: functional
# Staphylococcus aureus [28] = experiment: Compound was evaluated for the antibacterial activity against Staphylococcus aureus with strain beta-Lactamase-positive (LAC+); assay type: functional
# Escherichia coli [29] = experiment: Percentage zonal reduction was evaluated against Escherichia coli; assay type: functional
# Staphylococcus aureus [30] = experiment: Percentage zonal reduction was evaluated against Staphylococcus aureus; assay type: functional
compound,measurement,setting,value
CO/N=C(\C(=O)N[C@@H]1C(=O)N2C(C(=O)O)=C(COC(C)=O)C[S@+]([O-])C12)c1csc(N)n1 (some centres undefined),RHR,[1],0
same,MIC,Escherichia coli [2],0.1 µg/mL
Cn1nnnc1SCC1=C(C(=O)O)N2C(=O)[C@@H](NC(=O)Cc3ccc(O)cc3)C2OC1 (some centres undefined),MIC,Enterobacter cloacae [3],> 100 µg/mL
same,MIC,Escherichia coli [4],> 100 µg/mL
same,MIC,Escherichia coli [5],0.8 µg/mL
CO/N=C(\C(=O)N[C@@H]1C(=O)N2C(C(=O)O)=C(COC(C)=O)CS[C@H]12)c1csc(N)n1 [CEFOTAXIME],RHR,[6],100
same,RHR,[1],100
NCCSC1=C(C(=O)O)N2C(=O)[C@@H](CO)C2S1 (some centres undefined),RVmax,Escherichia coli [7],10
same,MIC,Escherichia coli [8],25 µg/mL
same,MIC,Escherichia coli [9],3.1 µg/mL
CC(=O)OCC1=C(C(=O)O)N2C(=O)[C@@H](NC(=O)/C(=N/OCC(=O)O)c3csc(N)n3)C2SC1 (some centres undefined),RHR,[6],3
same,RHR,[1],< 0.1
CC(O)[C@@H]1C(=O)N2C(C(=O)O)=C(SCCN)SC12 (some centres undefined),RVmax,Escherichia coli [7],< 0.1
same,MIC,Escherichia coli [8],25 µg/mL
same,MIC,Escherichia coli [9],12.5 µg/mL
Cn1nnnc1SCC1=C(C(=O)O)N2C(=O)[C@@H](NC(=O)CSCC#N)C2SC1 (some centres undefined),MIC,Escherichia coli [4],12.5 µg/mL
same,MIC,Escherichia coli [10],0.8 µg/mL
CC(=O)N[C@H]1CN(S(=O)(=O)[O-])C1=O.[K+],RVmax,[11],12
same,remaining at 24 h,[12],> 80%
CC(=O)NCCSC1=C(C(=O)O)N2C(=O)[C@H]([C@H](C)O)C2C1 (some centres undefined),MIC,Escherichia coli [13],0.8 µg/mL
same,MIC,Escherichia coli [14],0.8 µg/mL
CO/N=C(/C(=O)N[C@H]1CN(S(=O)(=O)[O-])C1=O)c1csc(N)n1.[K+],RHR,[6],106
same,RHR,[1],12
same,MIC,Escherichia coli [15],6.3 µg/mL
same,MIC,Escherichia coli [16],0.4 µg/mL
same,MIC,Klebsiella aerogenes [17],0.4 µg/mL
same,MIC,Klebsiella aerogenes [18],100 µg/mL
Cn1nnnc1SCC1=C(C(=O)[O-])N2C(=O)[C@@H](NC(=O)[C@H](NC(N)=O)c3ccco3)C2SC1.[Na+] (some centres undefined),MIC,Enterobacter cloacae [19],25 µg/mL
same,MIC,Providencia rettgeri [20],12.5 µg/mL
CO[C@@]1(NC(=O)C(C(=O)O)c2ccc(O)cc2)C(=O)N2C(C(=O)O)=C(CSc3nnnn3C)COC21 (some centres undefined),MIC,Enterobacter cloacae [3],0.2 µg/mL
same,MIC,Escherichia coli [4],0.4 µg/mL
same,MIC,Escherichia coli [5],0.2 µg/mL
CO[C@@]1(NC(=O)CSCC#N)C(=O)N2C(C(=O)[O-])=C(CSc3nnnn3C)CS[C@@H]21.[Na+] [CEFMETAZOLE SODIUM],MIC,Escherichia coli [4],0.8 µg/mL
same,MIC,Escherichia coli [10],0.8 µg/mL
CO[C@]1(NC(C)=O)CN(S(=O)(=O)[O-])C1=O.[K+],RVmax,[11],< 0.01
same,remaining at 24 h,[12],< 1%
Cn1nnnc1SCC1=C(C(=O)O)N2C(=O)[C@@H](NC(=O)Cc3csc(N)n3)C2SC1 (some centres undefined),MIC,Enterobacter cloacae [19],> 100 µg/mL
CC1(C)SC2[C@@H](NC(=O)Cc3ccccc3)C(=O)N2C1C(=O)O (some centres undefined),RHR,Staphylococcus aureus [21],2.2
same,MIC,Staphylococcus aureus [22],1.6 µg/mL
NCCSC1=C(C(=O)O)N2C(=O)CC2S1 (centres undefined),RVmax,Escherichia coli [7],75
same,MIC,Escherichia coli [8],50 µg/mL
same,MIC,Escherichia coli [9],0.8 µg/mL
CC1(C)SC2[C@H](NC(=O)c3ccccc3)C(=O)N2C1C(=O)O (some centres undefined),RVmax,[23],2
CO/N=C(\C(=O)N[C@@H]1C(=O)N2C(C(=O)O)=C(COC(C)=O)CSC12)c1csc(N)n1 (some centres undefined),RHR,[1],100
same,MIC,Escherichia coli [2],0.1 µg/mL
CO/N=C(/C(=O)N[C@@H]1C(=O)N2C(C(=O)O)=C(CSc3nnnn3C)CSC12)c1csc(N)n1 (some centres undefined),MIC,Enterobacter cloacae [19],1.6 µg/mL
CO/N=C(\C(=O)NC1CN(S(=O)(=O)[O-])C1=O)c1csc(N)n1.[K+] (centres undefined),RHR,Escherichia coli [24],< 0.02
same,MIC,Providencia rettgeri [25],> 100 µg/mL
CC(=O)OCC1=C(C(=O)O)N2C(=O)[C@@H](NC(=O)/C(=N\OCC(=O)O)c3csc(N)n3)C2SC1 (some centres undefined),RHR,[6],101
same,RHR,[1],2111
"CC1[C@H](NC(=O)CSc2cc(Cl)nc(Cl)c2)C(=O)N1OS(=O)(=O)O (single isomer, unassigned)",RHR,Staphylococcus aureus [26],1
same,MIC,Staphylococcus aureus [27],0.1 µg/mL
same,MIC,Staphylococcus aureus [28],1.6 µg/mL
CC(O)[C@H]1C(=O)N2C(C(=O)O)=C(SCCN)SC12 (some centres undefined),RVmax,Escherichia coli [7],< 0.1
same,MIC,Escherichia coli [8],1.5 µg/mL
same,MIC,Escherichia coli [9],0.8 µg/mL
Cn1nnnc1SCC1=C(C(=O)O)N2C(=O)[C@@H](NC(=O)C(C(=O)O)c3ccc(O)cc3)C2OC1 (some centres undefined),MIC,Enterobacter cloacae [3],0.4 µg/mL
same,MIC,Escherichia coli [4],50 µg/mL
same,MIC,Escherichia coli [5],0.2 µg/mL
Cn1nnnc1SCC1=C(C(=O)[O-])N2C(=O)[C@@H](NC(=O)[C@@H](NC(N)=O)c3ccco3)C2SC1.[Na+] (some centres undefined),MIC,Enterobacter cloacae [19],0.6 µg/mL
same,MIC,Providencia rettgeri [20],0.4 µg/mL
CC(=O)NCCSC1=C(C(=O)O)N2C(=O)[C@@H](C(C)OS(=O)(=O)[O-])C2C1.[K+] (some centres undefined),MIC,Escherichia coli [13],1.6 µg/mL
same,MIC,Escherichia coli [14],0.2 µg/mL
CO[C@@]1(NC(=O)Cc2ccc(O)cc2)C(=O)N2C(C(=O)O)=C(CSc3nnnn3C)COC21 (some centres undefined),MIC,Enterobacter cloacae [3],100 µg/mL
same,MIC,Escherichia coli [4],0.8 µg/mL
same,MIC,Escherichia coli [5],0.1 µg/mL
CC1=C(C(=O)O)N2C(=O)[C@@H](NC(=O)[C@H](N)c3ccccc3)[C@H]2SC1 [CEPHALEXIN ANHYDROUS],Zone reduction,Escherichia coli [29],27%
same,Zone reduction,Staphylococcus aureus [30],48%
CC(=O)NCCSC1=C(C(=O)O)N2C(=O)[C@@H](C(C)O)C2C1 (some centres undefined),MIC,Escherichia coli [13],25 µg/mL
same,MIC,Escherichia coli [14],0.2 µg/mL
O=C(CSc1cc(Cl)nc(Cl)c1)N[C@H]1CN(OS(=O)(=O)[O-])C1=O.[K+],RHR,Staphylococcus aureus [26],< 0.5
same,MIC,Staphylococcus aureus [27],0.1 µg/mL
same,MIC,Staphylococcus aureus [28],0.2 µg/mL
CC(=O)NCCSC1=C(C(=O)O)N2C(=O)[C@H]([C@@H](C)O)C2C1 (some centres undefined),MIC,Escherichia coli [13],6.2 µg/mL
same,MIC,Escherichia coli [14],6.2 µg/mL
CCO[C@@]1(NC(=O)CSCC#N)C(=O)N2C(C(=O)O)=C(CSc3nnnn3C)CSC21 (some centres undefined),MIC,Escherichia coli [4],50 µg/mL
same,MIC,Escherichia coli [10],50 µg/mL
CC1=C(C(=O)O)N2C(=O)[C@@H](NC(=O)[C@@H](N)C3=CCC=CC3)C2SC1 (some centres undefined),Zone reduction,Escherichia coli [29],12%
same,Zone reduction,Staphylococcus aureus [30],25%
CCCO[C@@]1(NC(=O)CSCC#N)C(=O)N2C(C(=O)O)=C(CSc3nnnn3C)CSC21 (some centres undefined),MIC,Escherichia coli [4],200 µg/mL
same,MIC,Escherichia coli [10],> 200 µg/mL
Cn1nnnc1SCC1=C(C(=O)O)N2C(=O)C(NC(=O)C(C(=O)O)c3ccc(O)cc3)C2OC1 (centres undefined),RHR,[1],19
same,MIC,Escherichia coli [9],0.2 µg/mL
NCCSC1=C(C(=O)O)N2C(=O)[C@H](CO)C2S1 (some centres undefined),RVmax,Escherichia coli [7],< 0.1
same,MIC,Escherichia coli [8],3.1 µg/mL
same,MIC,Escherichia coli [9],1.5 µg/mL
C[C@H]1[C@H](NC(=O)CSc2cc(Cl)nc(Cl)c2)C(=O)N1OS(=O)(=O)[O-].[K+],RHR,Staphylococcus aureus [26],2.6
same,MIC,Staphylococcus aureus [27],0.2 µg/mL
same,MIC,Staphylococcus aureus [28],6.3 µg/mL
